Measured values published in patent publication US20060088545A1, “Use of inhibitors of the protease of the human immunodeficiency virus (hiv) to block cell migration and/or invasion, tissue infiltration and oedema for the therary of diseases associated therewith” (priority 2001, published 2006).

What was measured:
[1] = test system: lesions induced by bFGF and VEGF combined; assay: Angiogenic KS-like lesions induced by bFGF and VEGF combined in nude mice; assay type: in vivo; conditions: bFGF 0.1 μg + VEGF 1 μg
Description: Since VEGF co-operates synergistically with bFGF in inducing angiogenesis and KS-lesion formation, mice (6 animals/group) were also inoculated with sub-optimal amounts of bFGF (0.1 μg) and VEGF (1 μg) combined, as previously performed to observe their synergistic effect (Samaniego et al 1998), and treated with HIV-PI as indicated above.
At sacrifice the sites of injection were examined for the presence of macroscopic angioproliferative lesions and tissue stained by H & E and analysed microscopically. Here are listed the number (No.) of mice that developed lesions with respect to the number (No.) of mice inoculated, and the percentage (%) of mice that developed lesions.

[2] = test system: myelo-monocytic leukaemia (U937) cells; assay: Tumour lesions induced by U937 cells in nude mice; assay type: in vivo; conditions: 5×10^6 cells/site; daily treatment
Description: The treatment with HIV-PI or saline solution continued until sacrifice. The size of the lesions present at the injection site was evaluated daily by caliper measurement. External lesion area was then calculated as the product of the two major lesion diameters. The mean size (cm^2) of the lesions present at the injection site is shown.
To determine whether HIV-PI could inhibit the growth of malignant solid and lymphoid tumours, nude mice were inoculated with hepato-carcinoma cells (SK-Hep-1), lung carcinoma cells (A549), breast adeno-carcinoma cells (MDA-MB-468), myelo-monocytic leukaemia cells (U937), and T lymhocytic leukaemia cells (Jurkat).

[3] = test system: dermal microvascular endothelial cells (H-DMVEC); assay: Proliferation assay of dermal microvascular endothelial cells with bFGF; assay type: cell-based, human; conditions: 10 μM; 5 days; bFGF 10 ng/ml
Source text: After 5 days of culture, cells were counted by trypan blue dye exclusion, as described above. Data from duplicate experiments are expressed as the number of […] grown in response to bFGF in the presence of indinavir, saquinavir or HIV-PI-resuspension buffer.

[4] = test system: breast carcinoma (MDA-MB468) cells; assay: Invasion assay of MDA-MB468 cells in response to bFGF; assay type: cell-based, human; conditions: 0.1, 1 or 10 μM
Description: Shown is the result of a representative invasion assay performed on the breast carcinoma cells MDA-MB468. […] The invasion assays were performed in the Boyden chamber. Polycarbonate filters ([…]; Nucleoprobe, Cabin John, Md.) were coated first with collagen IV and then with Matrigel (Collaborative Biomedical Products) as described previously (Barillari et al., 1999b). […] Human recombinant bFGF (50 ng/ml) was placed in the lower compartment as chemoattractant. […] Louis, Mo.). Ten random filter fields were counted by light microscopy as described previously (Barillari et al., 1999b). Assays were repeated two times.

[5] = test system: endothelial/lung carcinoma hybrid (Ea-hy 926) cells; assay: Cell growth assay of Ea-hy 926 cells; assay type: cell-based, human; conditions: 1 μM; 5 days
Description: The assays have been performed essentially as described in key to FIG. 1. No growth factors were added to EA-hy 926 cells since they produce factors which mediates cell growth in autocrine fashion (Edgell et al., 1983, Albini et al., PNAS 1995, Albini et al., Nat Med 1996). […] The assays have been performed essentially as described in legend to FIG. 3. Average and variation range of two independent experiments each performed in duplicate are shown.

[6] = test system: lung carcinoma cells (A549); assay: Cell growth assay of A549 cells; assay type: cell-based, human; conditions: 10 μM; 4 days
Description: Shown is the result of a representative cell growth assay performed on the lung carcinoma cells. Human lung carcinoma cells (A549; ATCC) were plated in triplicate (8×10^4 cells/well) in 12-well plates. […] Ensoli et al., 1994b): For all the in vitro studies HIV-PI as endotoxin-free pure powder (a kind gift of Merck Sharp & Dohme and Roche) were resuspended in distilled water. Assays were repeated at least three times.

smooth muscle cells = assay: Cell growth assay of smooth muscle cells in response to bFGF; assay type: cell-based, human
Source text: Assays have been essentially performed as described in key to FIGS. 1 and 3. […] Data of duplicate experiments (mean) are shown.

[7] = test system: primary macrovascular (umbilical vein) endothelial cells (HUVEC); assay: Boyden chamber migration assay of HUVEC in response to bFGF; assay type: cell-based, human; conditions: 0.1, 1 or 10 μM; bFGF 50 ng/ml; 5 hours
Description: Both assays were performed on endothelial cells.
Both assays were performed by the Boyden chamber separated in two compartments by polycarbonate filters with 12 μm pores (Nucleoprobe, Cabin John, Md.), coated with collagen IV (Collaborative Biomedical Products) for migration, or with collagen IV and Matrigel together for invasion, as described previously (Barillari et al., 1999b). […] After 5 hours (migration) or 6 hours (Invasion) of incubation, the non-migrated cells present on the top surface of the filters were mechanically removed, while the migrated cells on the bottom surface were fixed in methanol and stained with toluidine blue (Sigma Chemical Co., St. Louis, Mo.). The cells present in 5-10 microscopic fields of the filters, chosen at random, were counted as described previously (Barillari et al., 1999b).
The concentrations of HIV-PI used were the same as those present in plasma of treated patients (Deeks et al., 1997).

## CC(C)(C)NC(=O)[C@@H]1C[C@@H]2CCCC[C@@H]2CN1C[C@@H](O)[C@H](Cc1ccccc1)NC(=O)[C@H](CC(N)=O)NC(=O)c1ccc2ccccc2n1 [Saquinavir, saquinavir]
[1]
  No. of mice developing lesions/No. of mice: 1/6
  mice developing lesions (%): 17%
[2]
  development of tumour lesions (lesion size): inhibit
[3]
  proliferation in response to bFGF: do not interfere
[4]
  invasive capacity in response to bFGF: inhibit
[5]
  proliferation: do not interfere
[6]
  proliferation: do not interfere
Smooth muscle cells
  proliferation in response to bFGF: do not interfere
[7]
  migration induced by bFGF: block

## CC(C)(C)NC(=O)[C@@H]1CN(Cc2cccnc2)CCN1C[C@@H](O)C[C@@H](Cc1ccccc1)C(=O)N[C@H]1c2ccccc2C[C@H]1O [Indinavir, indinavir]
[1]
  No. of mice developing lesions/No. of mice: 2/6
  mice developing lesions (%): 33%
[2]
  development of tumour lesions (lesion size): inhibit
[3]
  proliferation in response to bFGF: do not interfere
[4]
  invasive capacity in response to bFGF: inhibit
[5]
  proliferation: do not interfere
[6]
  proliferation: do not interfere
Smooth muscle cells
  proliferation in response to bFGF: do not interfere
[7]
  migration induced by bFGF: block
